According to PMC4406354 (Journal of bone and mineral research : the official journal …, 2015):

Molecular target: T1, tissue-nonspecific alkaline phosphatase (TNAP) (Homo sapiens, UniProt P05186)
T1 sequence (P05186 18-501): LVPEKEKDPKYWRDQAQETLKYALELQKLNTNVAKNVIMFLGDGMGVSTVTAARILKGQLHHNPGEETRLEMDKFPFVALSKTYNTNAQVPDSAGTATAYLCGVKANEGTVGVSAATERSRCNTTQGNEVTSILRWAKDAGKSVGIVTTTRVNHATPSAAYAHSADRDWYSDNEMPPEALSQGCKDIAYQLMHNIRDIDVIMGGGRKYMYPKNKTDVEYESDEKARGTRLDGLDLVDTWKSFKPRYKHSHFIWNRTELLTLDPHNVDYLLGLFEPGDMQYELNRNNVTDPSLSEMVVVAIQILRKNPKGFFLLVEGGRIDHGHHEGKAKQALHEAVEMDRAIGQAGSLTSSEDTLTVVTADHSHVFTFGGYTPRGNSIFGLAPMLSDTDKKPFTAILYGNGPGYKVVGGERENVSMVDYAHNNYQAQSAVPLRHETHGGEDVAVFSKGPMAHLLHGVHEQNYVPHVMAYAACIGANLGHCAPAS
Experiment: in vitro TNAP inhibition IC50
Assay type: biochemical

IC50: 14 nM
SMILES: COc1ccc(Cl)cc1S(=O)(=O)Nc1cncc(C(N)=O)c1 [SBI-425]
